In US20090325960A1, “METHOD FOR TREATING INFLAMMATORY DISEASES USING RHO KINASE INHIBITOR COMPOUNDS” (priority 2008, published 2009):
Where two headings read alike, the source gives them in different places.

Tests used:
[1] = Rat oral pharmacokinetics (plasma); format: in vivo; conditions: rat oral PK, mean of n = 3 rats; for AUC (0-last): time zero through last observable value
Procedure: Plasma (EDTA K2 anticoagulant) was collected from male, cannulated, CD Sprague Dawley rats to determine the pharmacokinetics of formulations containing compound inhibitors of Rho kinase. Each animal was dosed orally with a 4 ml/kg solution or suspension of each test compound in 10 mM acetate buffered saline, pH 4.5 at a final concentration range of 20-30 mol/kg. Blood was collected at 0.25, 0.5, 1, 2, 4, 6, 8, and 24 hours. Plasma samples were assayed for the concentration of the test compound using an on-line, solid phase extraction LC/MS/MS analysis system.
Pharmacokinetic analyses were performed using WinNonlin software version 5.2 (Pharsight Corporation, Mountain View, Calif.).
As determined from the plasma concentration versus time curves, the time to peak and peak exposure are represented by the values Tmax and Cmax, respectively. The AUC values (nM*hr) shown were calculated as the areas under the plasma concentration versus time curves from time zero through the time of the last observable value and represent the total exposure of the compound over the course of the study. Half-life values or the amount of time required for the plasma levels of the compound to decline to half the initial value are represented as t1/2.

[2] = test system: cytokine secretion from LPS-stimulated human monocytes; experiment: Human monocyte cytokine secretion assay (LPS-stimulated); format: cell-based
Procedure: Peripheral blood from healthy human volunteers was collected and the monocytes isolated via Ficoll-paque density centrifugation. […] The cells were allowed to pre-incubate with test compound at the indicated concentration for 30 minutes (37° C., 5% CO2, humidified air); after which the supernatant was removed and media containing compound and 1 ng/mL LPS was added. Cells were allowed to incubate with compounds and LPS for 4 hours at 37° C. after which the supernatant was removed and stored at −80° C. Cytokine concentrations in the supernatant were determined using commercially available Bio-Rad Bio-Plex™ kits according the manufacturer's instructions.

[3] = Compound concentrations in lungs of ova-sensitized mice post IP, PO and IT administration; format: in vivo; conditions: male, Balb/c, mouse, lung, other: intratracheal (IT), BD model, IT 5 μmol/kg, read-out: Lung, nM (plasma corrected lung concentration)
Procedure: Additionally, compound concentrations were determined in the plasma and lungs of male, ovalbumin-sensitized, Balb/c mice from a murine model of asthma. Test compounds were formulated in water or 1% polysorbate 80 and dosed at 15 μmol/kg for intraperitoneal (IP) or oral (PO) administration or formulated for intratracheal (IT) administration and dosed at 5 μmol/kg, which directly targets the lungs. Following completion of the in vivo study, mice were euthanized and blood and plasma collected approximately 2.5-3 hours post administration of test compound for bronchodialator (BD) studies and 24 hours post administration for anti-inflamatory (AI) studies. Lungs were homogenized in Matrix A lysing tubes using a FastPrep 24 tissue and cell homogenizer (MP Biomedicals, Solon, Ohio). Both plasma samples and lung extracts were assayed for compound concentrations using an on-line, solid phase extraction LC/MS/MS system. The actual lung tissue concentrations of each compound in mouse were extrapolated from the lung and plasma concentrations, data are shown in Table 11. The results of a set of experiments using unsensitized mice and collecting only plasma 15 minutes post administration of test compounds are shown in Table 12.

[4] = test system: LPS-challenged BALB/c mice; experiment: LPS-induced neutrophilia and cytokine production assay; format: in vivo, mouse; conditions: for IL-1β levels in BALF: intratracheal administration, LPS-challenged animals
Procedure: Male BALB/c mice, approximately 19 to 21 grams, were ordered from Charles River Laboratories (Raleigh, N.C.). All animals were challenged with aerosolized LPS (10 μg/ml) for 25 minutes on study day 0. LPS aerosol was generated using an Aerogen Aeroneb nebulizer and controller providing a flow of 400 μl/min and a particle size of 2-4 μm MMAD. Rolipram was administered i.p at 20 mg/kg. […] Four hours following LPS challenge, BALF was collected using a total of 3 ml of 0.9% sodium chloride containing 10% fetal calf serum. Total cell counts were determined using the Coulter Counter. For differential evaluations, BALF was centrifuged and cytospin slides prepared and stained with Hema3 stain. Manual leukocyte counts were then completed on 200 cells. The final concentration of individual leukocyte cell types per ml of BALF was determined by multiplication of the relative percentage of individual leukocytes with the total amount of cells/ml of BALF fluid. The concentration of IL-1β in the BALF samples was determined using commercially available Bio-plex kits (Bio-Rad). The analysis of cytokine levels was measured using the Bio-Plex 200 (Bio-Rad) system according to the manufacturer's instructions.

[5] = test system: ova-sensitized, ova-challenged BALB/c mice; experiment: Prevention of airway hyperreactivity (Penh, methacholine) in mouse ovalbumin sensitization model; format: in vivo; conditions: for airway hyperreactivity: intratracheal once a day; for airway hyperreactivity to metacholine on Day 32: oral 15 μMol/kg once a day
Procedure: The anti-inflammatory dosing paradigm consists of dosing the animals once a day starting on day 27 and finishing on either day 30 or 31 (1 hr prior to the aerosolized ovalbumin challenges on days 28 to 30) but not on day 32 when hyperreactivity evaluation occurs. […] Exposure to the methacholine doses consisted of a 3 minute period during which a nebulizer was aerosolizing the methacholine and an additional 3 minute period following the cessation of nebulization. […] Enhanced pause (Penh), a unitless index of airway hyperreactivity, is derived from the expiratory side of the respiratory waveform measured via the plethysmograph and is used as an indirect measure of airway resistance and hyperreactivity. […] Following the methacholine dose response, BALF was collected and all animals were anesthetized, bled and euthanized. […] The Penh value at each of the dose levels of methacholine represents the 6-minute average response. Change from baseline (CFB) in Penh was calculated at each methacholine dose and the area under the curve (AUC) for these CFB values was calculated using the trapezoidal rule. This same approach was applied for each mouse across multiple experiments. […] Data from equal experimental conditions across experiments performed on different days were pooled for statistical analysis and data reporting. […] A random intercept for each experiment was assumed to account for possible similarities of the results obtained from a given experiment (i.e., as a “blocking effect”). […] For FIG. 11, linear AUC values from compound treated mice were reported as a percent of linear AUC values from vehicle-treated ovalbumin-sensitized/ovalbumin-challenged (asthmatic) mice.

[6] = test system: ova-sensitized, ova-challenged BALB/c mice; experiment: In vivo anti-inflammatory activity, mouse ovalbumin sensitization model (BALF cells and cytokines); conditions: for airway eosinophil infiltration (eosinophils per ml of BALF): dosed orally to day 31, anti-inflammatory dosing paradigm
Procedure: Upon arrival, the animals were randomized into groups of five males per cage and assigned to a dosing group. Animals were quarantined for 7 days under test conditions. […] Animals were sensitized on day 0 and 14 of study by an intraperitoneal injection with 20 μg of ovalbumin (ova) and 2.0 mg aluminum hydroxide (alum) which initiates the development of a specific T-helper (Th) cells type 2 resulting in asthmatic animals (denoted as Ova in the fugures). One group of animals received an injection of saline to use as control animals (denoted as normal in the figures). […] Aerosol challenge consists of using an Aerogen Aeroneb nebulizer and controller with a particle size of 4-6 μm mass median aerodynamic diameter (MMAD) with a distribution of 400 μl per minute. This aerosol challenge is necessary to target the Th2-driven allergic inflammation in the lower airways.
The anti-inflammatory dosing paradigm (FIG. 5) was utilized to evaluate the anti-inflammatory effects of experimental compounds. […] On day 32 of the experiment, after measurement of airway hyperreactivity, BALF was collected and all animals were anesthetized, bled and euthanized.
Bronchoalveolar lavage fluid (BALF) was collected by infusing 3.0 ml of saline with 10% fetal calf serum into the lungs via the trachea and then withdrawing the fluid. The total amount of cells/ml of BALF fluid was determined via manual cell count on hemocytometer. The BALF was centrifuged, supernatant removed and analyzed for cytokine concentrations as described below, and cell pellet reconstituted in 500 μL of fluid. Cytospin slides were prepared from the cell pellet using 100 μL of fluid and spinning samples for 5 minutes at 5000 rpms in a cytospin centrifuge, Following Hema3 stain, relative percentages of individual leukocytes were determined on a 200 cell count for each sample. The final concentration of individual leukocyte cell types per ml of BALF was determined by multiplication of the relative percentage of individual leukocytes with the total amount of cells/ml of BALF fluid.
The concentrations of cytokines in the BALF samples were determined using commercially available Bio-plex kits (Bio-Rad) for the detection of mouse IL-5, IL-13, and Eotaxin. The analysis of cytokine levels was measured using the Bio-Plex 200 (Bio-Rad) system according to the manufacturer's instructions.

[7] = test system: A-10 rat thoracic aorta cells; experiment: PDGF-stimulated smooth muscle cell proliferation assay (BrdU incorporation); format: cell-based
Procedure: Effects on cell proliferation were measured using a bromodeoxyuridine (BrdU) incorporation assay. […] Serum free media containing 0.1% BSA was added to the cells. 24 hours later the media was removed and replaced with warmed serum free media. […] Proliferation was then monitored using the BrdU Cell Proiferation Assay, HTS (Calbiochem cat. # HTS01). BrdU was allowed to incorporate into cells for 24 hours prior to the addition of fixative/denaturing solution and the fluorometric detection of incorporated BrdU using a BrdU antibody as per manufacturer's directions. Data are reported as a percent of the PDGF-stimulated BrdU incorporation.

[8] = target: T1, Mnk2 (Homo sapiens, UniProt Q9HBH9); format: biochemical
T1 construct: purchased Upstate, Millipore Bioscience Division (KinaseProfiler service)
T1 sequence (Q9HBH9 whole entry): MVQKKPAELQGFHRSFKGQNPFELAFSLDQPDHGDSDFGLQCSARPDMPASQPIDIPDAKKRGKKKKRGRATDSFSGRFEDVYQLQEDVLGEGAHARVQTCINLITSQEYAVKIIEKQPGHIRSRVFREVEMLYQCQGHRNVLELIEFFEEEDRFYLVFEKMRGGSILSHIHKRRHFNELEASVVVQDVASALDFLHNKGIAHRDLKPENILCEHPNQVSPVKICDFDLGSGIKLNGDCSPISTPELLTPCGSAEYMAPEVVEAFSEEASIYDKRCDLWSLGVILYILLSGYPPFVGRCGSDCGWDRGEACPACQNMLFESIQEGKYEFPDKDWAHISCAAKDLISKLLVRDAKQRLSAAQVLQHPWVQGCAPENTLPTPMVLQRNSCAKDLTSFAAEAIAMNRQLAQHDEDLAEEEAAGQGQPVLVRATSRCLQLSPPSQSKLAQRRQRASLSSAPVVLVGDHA
Procedure: (§1) Compounds of Formulae I and II were examined for activity against a selected panel of kinases using the KinaseProfiler™ enzyme profiling services (Upstate, Millipore Bioscience Division). Percent kinase activity at 10 μM and 1 μM test compound and 10 μM ATP was determined against 40 wild-type recombinant human kinases according to Upstate's standard protocol: ASK1, BTK, CSK, c-RAF, GCK, GSK3β, IKKα, IKKβ, IRAK1, IRAK4, JNK1α1, JNK2α2, JNK3, ERK1, ERK2, MAPKAP-K2, MAPKAP-K3, MEK1, MKK4, MKK6, MKK7β, Mnk2, MSK1, PAK3, PDK1, PRAK, ROCK1, Rsk2, SAPK2a, SAPK2b, SAPK3, SAPK4, SRPK1, SRPK2, Syk, TAK1, TBK1, PI3-Kβ, PI3-Kγ, PI3-Kδ.

[9] = test system: human eosinophils; experiment: Human eosinophil chemotaxis (eotaxin-induced); format: cell-based; conditions: 1 nM eotaxin challenge
Text: Human Eosinophil Isolation: Peripheral blood from healthy human volunteers was collected and the PMNs separated via Ficoll-paque density centrifugation followed by hypotonic lysis of the red blood cells. Subsequently, the human eosinophils were isolated from the cell suspension via StemCell Technologies Human Eosinophil Enrichment kit (Cat. No 19256) according to the manufacturer's recommendations. Briefly, unwanted cells were specifically labeled with dextran-coated magnetic nanoparticles using bispecific Tetrameric Antibody Complexes (TAC) directed against cell surface antigens on human blood cells: CD2, CD3, CD14, CD16, CD19, CD20CD36, CD56, CD123, glycophorin A and dextran. The unwanted cells are then separated from the unlabelled eosinophils using the EasySep® magnetic isolation procedure.
(§2) In Vitro Chemotaxis: Eosinophil chemotaxis was assessed using a modified Boyden Chamber (Neuroprobe, 96-well) with a 5 μm pore membrane. The ability of the tested compounds to block chemotaxis induced by a 10 nM eotaxin challenge (mouse) or 1 nM eotaxin challenge (human) during one hour incubation at 37° C. with 5% CO2 was assessed.

[10] = test system: murine eosinophils; experiment: Murine eosinophil chemotaxis (eotaxin-induced); format: cell-based, mouse; conditions: 10 nM eotaxin challenge
Procedure: Mouse Eosinophil Isolation: Bronchoalveolar lavage was collected from ovalbumin sensitized and challenged mice in a volume of 2.5 mL lavage buffer. The lavage buffer was 0.9% saline with 10% fetal bovine serum. The pooled lavages were maintained on ice until use. The murine eosinophils were isolated using MACS cell separation (Miltenyi Biotech) by depletion of B cells and T cells by positive selection following incubation with antibody conjugated magnetic beads specific for CD45-R (B220) and CD90 (Thy 1.2), which bind B cells and T cells, respectively.
as §2

[11] = target: T2, ERK2 (Homo sapiens, UniProt P28482); experiment: Kinase panel screen (KinaseProfiler), ERK2; format: biochemical; conditions: 1 μM test compound, 10 μM ATP; read-out: Percent inhibition ERK2 at 1 μM
T2 construct: purchased Upstate, Millipore Bioscience Division (KinaseProfiler service)
T2 sequence (P28482 whole entry): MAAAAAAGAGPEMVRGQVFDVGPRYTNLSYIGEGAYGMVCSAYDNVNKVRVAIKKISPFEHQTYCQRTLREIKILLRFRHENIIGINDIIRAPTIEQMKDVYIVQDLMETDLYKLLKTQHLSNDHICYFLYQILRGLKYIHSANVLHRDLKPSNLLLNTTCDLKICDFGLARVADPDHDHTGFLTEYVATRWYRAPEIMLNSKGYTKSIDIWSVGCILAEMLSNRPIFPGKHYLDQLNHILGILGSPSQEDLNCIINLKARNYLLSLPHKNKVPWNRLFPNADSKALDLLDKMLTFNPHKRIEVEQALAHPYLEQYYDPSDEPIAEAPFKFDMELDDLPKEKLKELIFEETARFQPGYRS
Procedure: as §1

[12] = target: T3, ERK1 (Homo sapiens, UniProt P27361); experiment: Kinase panel screen (KinaseProfiler), ERK1; format: biochemical; conditions: 1 μM test compound, 10 μM ATP
T3 construct: purchased Upstate, Millipore Bioscience Division (KinaseProfiler service)
T3 sequence (P27361 whole entry): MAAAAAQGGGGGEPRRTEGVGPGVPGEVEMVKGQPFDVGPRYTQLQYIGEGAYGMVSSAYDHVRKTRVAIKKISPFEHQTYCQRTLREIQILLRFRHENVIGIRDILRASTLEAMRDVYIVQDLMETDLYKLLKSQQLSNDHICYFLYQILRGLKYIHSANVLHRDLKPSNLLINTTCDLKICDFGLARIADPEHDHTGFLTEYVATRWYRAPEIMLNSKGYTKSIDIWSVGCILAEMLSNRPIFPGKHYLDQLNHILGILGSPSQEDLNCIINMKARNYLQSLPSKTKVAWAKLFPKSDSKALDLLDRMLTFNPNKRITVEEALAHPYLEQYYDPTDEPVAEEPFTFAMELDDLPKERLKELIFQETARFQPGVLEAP
Procedure: as §1

[13] = test system: monocytes, endothelial cells, and lymphocytes; conditions: cited from earlier work
[14] = test system: VEGF-induced angiogenesis; conditions: 100 μM; cited from earlier work
[15] = 10 μM of test compound, 1 ng/mL LPS, 4 hours, read-out: IL-1β % (Percent inhibition values for inhibition of cytokine secretion)
[16] = read-out: IL-6 % (Percent inhibition values for inhibition of cytokine secretion), 10 μM of test compound, 1 ng/mL LPS, 4 hours
[17] = 15 μmol/kg/oral on days 27 to 31

For `CS(=O)(=O)Nc1cccc(CN2CCC[C@H](Nc3ccc4[nH]ncc4c3)C2)c1` [Compound 1.091, (S)-N-(3-((3-(1H-indazol-5-ylamino)piperidin-1-yl)methyl)phenyl)methanesulfonamide], the Cmax [1] was “BLQ”, the Tmax [1] was “BLQ” and the Vz_F [1] was “BLQ”. For the same molecule, the t½ [1] was “BLQ”, the “AUC (0-last)” value [1] was “BLQ” and the activity at 10 µM [2, 15] was 166%. For the same molecule, the concentration at 2.5 h [3] was 123 nM, the “IL-1β levels in BALF” value [4] was “reduction in IL-1β” and the “LPS-induced pulmonary neutrophilia influx (BALF)” value ([4]; intratracheal dosing one hour prior to LPS challenge) was “significant reduction”. For the same molecule, the airway hyperreactivity ([5]; days 27 to 30) was “prevention of airway hyperreactivity” and the “eosinophil influx (BALF)” value ([6]; dosed i.t. to day 30, anti-inflammatory dosing paradigm) was “reduction of eosinophils”.
Molecule `OCCOc1cccc(CN2CCC[C@@H](Nc3ccc4[nH]ncc4c3)C2)c1` [Compound 1.092, (R)-2-(3-((3-(1H-indazol-5-ylamino)piperidin-1-yl)methyl)phenoxy)ethanol] has a Vz_F [1] of 19.0 L/kg.
With `c1cc2cc(CN3CCC[C@@H](Nc4ccc5[nH]ncc5c4)C3)ccc2o1` [Compound 1.131, (R)-N-(1-(benzofuran-5-ylmethyl)piperidin-3-yl)-1H-indazol-5-amine] the Vz_F [1] was 6.8 L/kg, the “airway hyperreactivity to metacholine on Day 32” value ([5]; days 27 to 31) was “prevention of airway hyperreactivity” and the “airway eosinophil infiltration (eosinophils per ml of BALF)” value [6] was “reduced”.
For `CCc1ccc(CN2CCC[C@@H](Nc3ccc4[nH]ncc4c3)C2)cc1` [Compound 1.136, (R)-N-(1-(4-ethylbenzyl)piperidin-3-yl)-1H-indazol-5-amine], the Cmax [1] was “BLQ”, the Tmax [1] was “BLQ” and the Vz_F [1] was “BLQ”. The t½ [1] was “BLQ” and the “AUC (0-last)” value [1] was “BLQ”.
With `Cc1ccc(CN2CCC[C@@H](Nc3ccc4[nH]ncc4c3)C2)cc1OCCO` [Compound 1.161, (R)-2-(5-((3-(1H-indazol-5-ylamino)piperidin-1-yl)methyl)-2-methylphenoxy)ethanol] the airway hyperreactivity ([5]; days 27 to 31) was “prevention of airway hyperreactivity”, the “Proliferation at 1 μM” value ([7]; average percent of PDGF stimulated proliferation at 1 μM test compound) was 50.0% and the “Percent inhibition Mnk2 at 1 μM” value [8] was 108.
With `NC(=O)Cn1ccc2cc(CN3CCC[C@@H](Nc4ccc5[nH]ncc5c4)C3)ccc21` [Compound 1.162, (R)-2-(5-((3-(1H-indazol-5-ylamino)piperidin-1-yl)methyl)-1H-indol-1-yl)acetamide] the “Percent inhibition Mnk2 at 1 μM” value [8] was 111.
In the case of `c1cc2c(cc1CN1CCC[C@@H](Nc3ccc4[nH]ncc4c3)C1)CCO2` [Compound 1.246, (R)-N-(1-((2,3-dihydrobenzofuran-5-yl)methyl)piperidin-3-yl)-1H-indazol-5-amine], the activity at 10 µM [2, 15] is reported as 103%, the activity at 10 µM ([2]; 10 μM of test compound, 1 ng/mL LPS, 4 hours, read-out: TNF-α % (Percent inhibition values for inhibition of cytokine secretion)) is reported as 79% and the activity at 10 µM [2, 16] is reported as 108%.
In the case of `CSc1ccc(CN2CC[C@@H](Nc3cccc4cnccc34)C2)cc1` [Compound 2.026, (R)-N-(1-(4-(methylthio)benzyl)pyrrolidin-3-yl)isoquinolin-5-amine], the Cmax [1] is reported as “BLQ”, the Tmax [1] is reported as “BLQ” and the Vz_F [1] is reported as “BLQ”. For the same molecule, the t½ [1] was “BLQ”, the “AUC (0-last)” value [1] was “BLQ” and the “Percent of PDGF Induced Proliferation at 10 μM Avg” value ([7]; 10 μM, 10 ng/mL PDGF) was 52.0%. For the same molecule, the “Proliferation at 10 μM” value ([7]; average percent of PDGF stimulated proliferation at 10 μM test compound) was 52.0%.
For `CS(=O)(=O)Nc1cccc(CN2CC[C@@H](Nc3cccc4cnccc34)C2)c1` [Compound 2.038, (R)-N-(3-((3-(isoquinolin-5-ylamino)pyrrolidin-1-yl)methyl)phenyl)methanesulfonamide], the “inhibition of eotaxin-induced human eosinophil chemotaxis” value [9] was “inhibited”, the “inhibition of eotaxin-induced murine eosinophil chemotaxis” value [10] was “inhibited” and the “airway hyperreactivity to metacholine on Day 32” value ([5]; days 27 to 31) was “prevention of airway hyperreactivity”. The “concentration of Eotaxin in BALF” value [6, 17] was “reduced levels”, the “concentration of IL-5 in BALF” value [6, 17] was “reduced levels” and the “concentration of IL-13 in BALF” value [6, 17] was “reduced levels”. The “airway eosinophil infiltration (eosinophils per ml of BALF)” value [6] was “reduced”.
`NC(=O)Cn1ccc2ccc(CN3CC[C@@H](Nc4cccc5cnccc45)C3)cc21` [Compound 2.058, (R)-2-(6-((3-(isoquinolin-5-ylamino)pyrrolidin-1-yl)methyl)-1H-indol-1-yl)acetamide] showed an activity at 10 µM [2, 16] of 1.3%.
In the case of `NC(=O)Cn1ccc2cc(CN3CC[C@@H](Nc4cccc5cnccc45)C3)ccc21` [Compound 2.059, (R)-2-(5-((3-(isoquinolin-5-ylamino)pyrrolidin-1-yl)methyl)-1H-indol-1-yl)acetamide], the activity at 1 µM [11] is reported as roughly 50%, the activity at 10 µM [2, 16] is reported as 0% and the Percent inhibition at 1 µM [12] is reported as roughly 50%. For the same molecule, the “IL-1β levels in BALF” value [4] was “reduction in IL-1β”, the airway hyperreactivity ([5]; days 27 to 31) was “prevention of airway hyperreactivity” and the “Percent inhibition Mnk2 at 1 μM” value [8] was 49.
In the case of `OCCn1ccc2cc(CN3CC[C@@H](Nc4cccc5cnccc45)C3)ccc21` [Compound 2.066, (R)-2-(5-((3-(isoquinolin-5-ylamino)pyrrolidin-1-yl)methyl)-1H-indol-1-yl)ethanol], the activity at 1 µM [11] is reported as roughly 50%, the Percent inhibition at 1 µM [12] is reported as roughly 50% and the airway hyperreactivity ([5]; days 27 to 31) is reported as “prevention of airway hyperreactivity”. The “Percent inhibition Mnk2 at 1 μM” value [8] was 99.
In the case of `C[C@@H](N)[C@H]1CC[C@H](C(=O)Nc2ccncc2)CC1` [Compound Y-27632], the “expression of IL-1β, TNFα, and various other cytokines” value [13] is given as “suppress expression”.
For `O=S(=O)(c1cccc2cnccc12)N1CCCNCC1` [Fasudil], the “expression of IL-1β, TNFα, and various other cytokines” value [13] is listed as “suppress expression” and the new vessel formation [14] is listed as “new vessel formation was prevented”.
